Columns and labels:
Type in all cases: in vivo
[1] = test system: redroot pigweed (Amaranthus retroflexus); test: Test G Pre-Emergence Protocol; details: Amaranthus retroflexus, pre-emergence, 312 h, evaluated after 13 days; for pest or weed control at 15.625 g/ha: 15.625 g ai/ha; for pest or weed control at 15.625 g/ha / pest or weed control at 250 g/ha: read-out: Pigweed, Redroot damage rating (100=total damage to plant; 0=no damage to plant); for pest or weed control at 62.5 g/ha: 62.5 g ai/ha, 100=total damage to plant, 0=no damage to plant, read-out: Pigweed, Redroot damage rating; for pest or weed control at 250 g/ha: 250 g ai/ha
Procedure, shortened: (§1)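 Pre-emergence spray, 15.625/62.5/250 g/ha, vehicle acetone:water 50:50 + 0.5% Tween 20, applied 1 d after sowing. Glasshouse 24/16° C, 14 h light, 65% RH, watered twice daily. Visual damage rating at 13 d, 0–100 scale.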

[2] = test system: giant foxtail (Setaria faberi); test: Test G Pre-Emergence Protocol; details: Setaria faberi, pre-emergence, 312 h, evaluated after 13 days; for pest or weed control at 15.625 g/ha: 15.625 g ai/ha; for pest or weed control at 15.625 g/ha / pest or weed control at 250 g/ha: read-out: Foxtail, Giant damage rating (100=total damage to plant; 0=no damage to plant); for pest or weed control at 62.5 g/ha: 62.5 g ai/ha, 100=total damage to plant, 0=no damage to plant, read-out: Foxtail, Giant damage rating; for pest or weed control at 250 g/ha: 250 g ai/ha
Procedure, shortened: as §1

[3] = test system: ivy-leaved morning glory (Ipomoea hederacea); test: Test G Pre-Emergence Protocol; details: Ipomoea, pre-emergence, 312 h, evaluated after 13 days; for pest or weed control at 15.625 g/ha: 15.625 g ai/ha; for pest or weed control at 15.625 g/ha / pest or weed control at 250 g/ha: read-out: Morningglory, Ivy-leaved damage rating (100=total damage to plant; 0=no damage to plant); for pest or weed control at 62.5 g/ha: 62.5 g ai/ha, 100=total damage to plant, 0=no damage to plant, read-out: Morningglory, Ivy-leaved damage rating; for pest or weed control at 250 g/ha: 250 g ai/ha
Procedure, shortened: as §1

corn (Zea mays) [4] = test: Test G Pre-Emergence Protocol; details: Zea mays, pre-emergence, 312 h, evaluated after 13 days; for plant injury at 15.625 g/ha: 15.625 g ai/ha; for plant injury at 15.625 g/ha / plant injury at 250 g/ha: read-out: Corn damage rating (100=total damage to plant; 0=no damage to plant); for plant injury at 62.5 g/ha: 62.5 g ai/ha, 100=total damage to plant, 0=no damage to plant, read-out: Corn damage rating; for plant injury at 250 g/ha: 250 g ai/ha
Procedure, shortened: as §1

[5] = test system: barnyardgrass (Echinochloa crus-galli); test: Test G Pre-Emergence Protocol; details: Echinochloa crus-galli, pre-emergence, 312 h, evaluated after 13 days; for pest or weed control at 15.625 g/ha: 15.625 g ai/ha; for pest or weed control at 15.625 g/ha / pest or weed control at 250 g/ha: read-out: Barnyardgrass damage rating (100=total damage to plant; 0=no damage to plant); for pest or weed control at 62.5 g/ha: 62.5 g ai/ha, 100=total damage to plant, 0=no damage to plant, read-out: Barnyardgrass damage rating; for pest or weed control at 250 g/ha: 250 g ai/ha
Procedure, shortened: as §1

[6] = test system: velvetleaf (Abutilon theophrasti); test: Test G Pre-Emergence Protocol; details: Abutilon theophrasti, pre-emergence, 312 h, evaluated after 13 days; for pest or weed control at 15.625 g/ha: 15.625 g ai/ha; for pest or weed control at 15.625 g/ha / pest or weed control at 250 g/ha: read-out: Velvetleaf damage rating (100=total damage to plant; 0=no damage to plant); for pest or weed control at 62.5 g/ha: 62.5 g ai/ha, 100=total damage to plant, 0=no damage to plant, read-out: Velvetleaf damage rating; for pest or weed control at 250 g/ha: 250 g ai/ha
Procedure, shortened: as §1

[7] = test system: redroot pigweed (Amaranthus retroflexus); test: Test G Post-Emergence Protocol; details: Amaranthus retroflexus, post-emergence, 312 h, read-out: Pigweed, Redroot damage rating; for pest or weed control at 15.625 g/ha: 15.625 g ai/ha, evaluated after 13 days (100=total damage to plant; 0=no damage to plant); for pest or weed control at 62.5 g/ha: 62.5 g ai/ha; for pest or weed control at 62.5 g/ha / pest or weed control at 250 g/ha: evaluated after 13 days, 100=total damage to plant, 0=no damage to plant; for pest or weed control at 250 g/ha: 250 g ai/ha
Procedure, shortened: (§2)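 Sow in soil; grow 8 d (24/16 °C, 14 h light, 65% humidity); spray 15.625/62.5/250 g/ha in acetone:water 50:50 + 0.5% Tween 20; grow on, water twice daily; score damage 0–100 at 13 d.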

[8] = test system: giant foxtail (Setaria faberi); test: Test G Post-Emergence Protocol; details: Setaria faberi, post-emergence, 312 h, read-out: Foxtail, Giant damage rating; for pest or weed control at 15.625 g/ha: 15.625 g ai/ha, evaluated after 13 days (100=total damage to plant; 0=no damage to plant); for pest or weed control at 62.5 g/ha: 62.5 g ai/ha; for pest or weed control at 62.5 g/ha / pest or weed control at 250 g/ha: evaluated after 13 days, 100=total damage to plant, 0=no damage to plant; for pest or weed control at 250 g/ha: 250 g ai/ha
Procedure, shortened: as §2

[9] = test system: ivy-leaved morning glory (Ipomoea hederacea); test: Test G Post-Emergence Protocol; details: Ipomoea, post-emergence, 312 h, read-out: Morningglory, Ivy-leaved damage rating; for pest or weed control at 15.625 g/ha: 15.625 g ai/ha, evaluated after 13 days (100=total damage to plant; 0=no damage to plant); for pest or weed control at 62.5 g/ha: 62.5 g ai/ha; for pest or weed control at 62.5 g/ha / pest or weed control at 250 g/ha: evaluated after 13 days, 100=total damage to plant, 0=no damage to plant; for pest or weed control at 250 g/ha: 250 g ai/ha
Procedure, shortened: as §2

corn (Zea mays) [10] = test: Test G Post-Emergence Protocol; details: Zea mays, post-emergence, 312 h, read-out: Corn damage rating; for plant injury at 15.625 g/ha: 15.625 g ai/ha, evaluated after 13 days (100=total damage to plant; 0=no damage to plant); for plant injury at 62.5 g/ha: 62.5 g ai/ha; for plant injury at 62.5 g/ha / plant injury at 250 g/ha: evaluated after 13 days, 100=total damage to plant, 0=no damage to plant; for plant injury at 250 g/ha: 250 g ai/ha
Procedure, shortened: as §2

[11] = test system: barnyardgrass (Echinochloa crus-galli); test: Test G Post-Emergence Protocol; details: Echinochloa crus-galli, post-emergence, 312 h, read-out: Barnyardgrass damage rating; for pest or weed control at 15.625 g/ha: 15.625 g ai/ha, evaluated after 13 days (100=total damage to plant; 0=no damage to plant); for pest or weed control at 62.5 g/ha: 62.5 g ai/ha; for pest or weed control at 62.5 g/ha / pest or weed control at 250 g/ha: evaluated after 13 days, 100=total damage to plant, 0=no damage to plant; for pest or weed control at 250 g/ha: 250 g ai/ha
Procedure, shortened: as §2

[12] = test system: velvetleaf (Abutilon theophrasti); test: Test G Post-Emergence Protocol; details: Abutilon theophrasti, post-emergence, 312 h, read-out: Velvetleaf damage rating; for pest or weed control at 15.625 g/ha: 15.625 g ai/ha, evaluated after 13 days (100=total damage to plant; 0=no damage to plant); for pest or weed control at 62.5 g/ha: 62.5 g ai/ha; for pest or weed control at 62.5 g/ha / pest or weed control at 250 g/ha: evaluated after 13 days, 100=total damage to plant, 0=no damage to plant; for pest or weed control at 250 g/ha: 250 g ai/ha
Procedure, shortened: as §2

Structure (SMILES) | pest or weed control at 15.625 g/ha [1] | pest or weed control at 62.5 g/ha [1] | pest or weed control at 250 g/ha [1] | pest or weed control at 15.625 g/ha [2] | pest or weed control at 62.5 g/ha [2] | pest or weed control at 250 g/ha [2] | pest or weed control at 15.625 g/ha [3] | pest or weed control at 62.5 g/ha [3] | pest or weed control at 250 g/ha [3] | plant injury at 15.625 g/ha (corn (Zea mays) [4]) | plant injury at 62.5 g/ha (corn (Zea mays) [4]) | plant injury at 250 g/ha (corn (Zea mays) [4]) | pest or weed control at 15.625 g/ha [5] | pest or weed control at 62.5 g/ha [5] | pest or weed control at 250 g/ha [5] | pest or weed control at 15.625 g/ha [6] | pest or weed control at 62.5 g/ha [6] | pest or weed control at 250 g/ha [6] | pest or weed control at 15.625 g/ha [7] | pest or weed control at 62.5 g/ha [7] | other results
CN1C[C@H](c2cccc(C(F)(F)F)c2)[C@@H](C(=O)Nc2cnccc2[N+](=O)[O-])C1=O (racemic) [Compound 1731] | 0% | 0% | 0% | 0% | 0% | 20% | 0% | 0% | 0% | 0% | 0% | 0% | 0% | 0% | 0% | 0% | 0% | 0% | 0% | 0% | pest or weed control at 250 g/ha [7]: 10%; pest or weed control at 15.625 g/ha [8]: 0%; pest or weed control at 62.5 g/ha [8]: 0%; pest or weed control at 250 g/ha [8]: 0%; pest or weed control at 15.625 g/ha [9]: 0%; pest or weed control at 62.5 g/ha [9]: 0%; pest or weed control at 250 g/ha [9]: 0%; plant injury at 15.625 g/ha (corn (Zea mays) [10]): 0%; plant injury at 62.5 g/ha (corn (Zea mays) [10]): 0%; plant injury at 250 g/ha (corn (Zea mays) [10]): 0%; pest or weed control at 15.625 g/ha [11]: 0%; pest or weed control at 62.5 g/ha [11]: 0%; pest or weed control at 250 g/ha [11]: 0%; pest or weed control at 15.625 g/ha [12]: 0%; pest or weed control at 62.5 g/ha [12]: 0%; pest or weed control at 250 g/ha [12]: 0%
CN1C[C@H](c2ccc(C(F)(F)F)cc2)[C@@H](C(=O)Nc2ccc(C(F)(F)F)cn2)C1=O (racemic) [Compound 1672] | 0% | 0% | 0% | 0% | 0% | 0% | 0% | 0% | 0% | 0% | 0% | 0% | 0% | 0% | 0% | 0% | 0% | 0% | 0% | 30% | pest or weed control at 250 g/ha [7]: 40%; pest or weed control at 15.625 g/ha [8]: 0%; pest or weed control at 62.5 g/ha [8]: 0%; pest or weed control at 250 g/ha [8]: 0%; pest or weed control at 15.625 g/ha [9]: 0%; pest or weed control at 62.5 g/ha [9]: 0%; pest or weed control at 250 g/ha [9]: 0%; plant injury at 15.625 g/ha (corn (Zea mays) [10]): 0%; plant injury at 62.5 g/ha (corn (Zea mays) [10]): 0%; plant injury at 250 g/ha (corn (Zea mays) [10]): 10%; pest or weed control at 15.625 g/ha [11]: 0%; pest or weed control at 62.5 g/ha [11]: 0%; pest or weed control at 250 g/ha [11]: 0%; pest or weed control at 15.625 g/ha [12]: 0%; pest or weed control at 62.5 g/ha [12]: 0%; pest or weed control at 250 g/ha [12]: 0%

Source: patent US12077503B2, “Substituted cyclic amides and their use as herbicides” (FMC CORPORATION, priority 2015, dated 2024)
